Like-named read-outs stand apart in the source and are kept apart here.
Columns and labels:
LuHCV cells = assay: Evaluation of cell growth suppression using LuHCV cells (percentage of viable cells, reagent SF); assay type: cell-based, human; conditions: 48 hours, DMSO = 100%
Protocol: At this time, as a background absorbance, measurement was also performed for wells containing test compounds (or DMSO used as a control), but containing no cells. Each of the thus obtained background numerical values was deducted from the absorbance of a cell-containing well (measured for the same compound at the same concentration). The resulting value was designated as actual measurement of number of viable cells containing no background. […] With an average value measured for DMSO used as a control test substance designated as 100%, the percentage of the number of viable cells for each test compound was calculated.
At this time, as a background absorbance, measurement was also performed for wells containing test compounds (or containing DMSO used as a control), but containing no cells. Each of the thus obtained background numerical values was deducted from the absorbance of a cell-containing well (measured for the same compound at the same concentration). The resulting value was designated as actual measurement of number of viable cells containing no background. […] By using a value measured upon addition of DMSO used as a control test substance designated as 100%, the percentage of the number of viable cells for each test compound was calculated. Table 1-2 and FIG. 2B show the percentage of the number of viable cells (cell viability (% control)) for each test compound at each concentration.

[1] = tested on: intracellular HCV protein (NS3-NS4-NS5A-NS5B); assay: HCV viral protein expression assay using LuHCV cells (luciferase activity); conditions: for activity at 10 µM / activity at 20 µM: Hepatitis C virus, 48 h, read-out: luc activity (% control); for luciferase activity (result in words): 0, 10 and 20 μM
Protocol: As an HCV viral protein expression assay, screening was performed for compounds having anti-HCV activity using human hepatocytes with which the replication and expression of the intracellular HCV protein (NS3-NS4-NS5A-NS5B) can be evaluated through determination of luciferase activity (hereinafter, referred to as LuHCV).
LuHCV cells were plated onto 96-well plates at 5×10^3 cells/50 μL/well and then incubated overnight. Test compounds were each dissolved in dimethyl sulfoxide (DMSO) and dilution series were prepared using DMSO, if necessary. On the next day of plating of LuHCV cells, a medium containing a test compound with a concentration twice the final test concentration was added at 50 μL/well. Cells were gently cultured under culture conditions of 48 hours, 37° C., and 5% CO2 (the final concentrations of the test compounds: 0, 10, and 20 μM). At this time, analysis was made using 3 test wells for each test compound and for each concentration.
Culture medium was removed after 48 hours. Glo lysis buffer (100 μL) (Promega) was added to each well and then cells were disrupted, so that a cell extract was obtained. With the use of 50 μL of the thus obtained cell extract, 50 μL of a Bright-Glo™ Luciferase Assay System (Promega) reagent was added. Luciferase activity in the extract was determined by measuring luminescence intensity for one second using a measuring device ARVO (PerkinElmer Co., Ltd.).
Based on the thus obtained numerical values of luminescence intensity, an average value for each test compound at each concentration was calculated. The luminescence intensity percentage for each test compound was calculated based on a luminescence intensity for DMSO (used as a control for test substances) as 100%.
Culture medium was removed after 48 hours. Glo Lysis buffer (100 μL) (Promega) was added to each well and then cells were disrupted, so that a cell extract was obtained. With the use of 50 μL of the thus obtained cell extract, 50 μL of a Bright-Glo™ Luciferase Assay System (Promega) reagent was added. Luciferase activity in the extract was determined by measuring luminescence intensity for one second using a measuring device ARVO (PerkinElmer Co., Ltd.).
Based on the thus obtained numerical values of luminescence intensity, an average value for each test compound at each concentration was calculated. The luminescence intensity percentage for each test compound was calculated based on a luminescence intensity of DMSO (used as a control for test substances) as 100%.

influenza virus = conditions: for cell death due to influenza virus infection (result in words): 5 and 10 μM, 48 hours, MDCK cells

Compound | viability (% control) (LuHCV cells; 10 μM) | viability (% control) (LuHCV cells; 20 μM) | activity at 10 µM [1] [%] | activity at 20 µM [1] [%] | luciferase activity (result in words) ([1]; 48 hours, LuHCV cells) | viability (% control) (influenza virus; 5 µM) | viability (% control) (influenza virus; 10 µM) | cell death due to influenza virus infection (result in words) (influenza virus) | decrease in luminescence intensity compared with the control ([1]; 10 μM, 48 hours, LuHCV cells)
O=C(Nc1cc(C(F)(F)F)ccc1N1CCC[C@H]2CCCC[C@@H]21)c1ccncc1 (relative stereo) [Compound 19, N-[2-(trans-2-azabicyclo[4.4.0]decan-2-yl)-5-(trifluoromethyl)phenyl]isonicotinamide] | 99.02 | 91.02 | 51 | 33.5 |  |  |  |  | 
FC(F)(F)c1ccc(N2CCC[C@H]3CCCC[C@@H]32)c(NC(=S)c2ccncc2)c1 (relative stereo) [Compound 21, N-[2-(trans-2-azabicyclo[4.4.0]-decan-2-yl)-5-(trifluoromethyl)phenyl]isonicotinthioamide] | 94.44 | 93.56 | 56.8 | 34 |  |  |  |  | 
FC(F)(F)c1ccc(N2CC[C@H]3CCCC[C@@H]3C2)c(NC(=S)c2ccncc2)c1 (relative stereo) [Compound 22, N-[2-(trans-3-azabicyclo[4.4.0]decan-3-yl)-5-(trifluoromethyl)phenyl]isonicotinthioamide] | 104.65 | 96.39 | 42.6 | 21.9 |  |  |  |  | 
O=C(NC(=S)Nc1cc(C(F)(F)F)ccc1N1CC[C@H]2CCCC[C@@H]2C1)c1ccccc1 (relative stereo) [Compound 23, 1-benzoyl-3-[2-(trans-3-azabicyclo[4.4.0]decan-3-yl)-5-(trifluoromethyl)phenyl]thiourea] | 106.72 | 104.93 | 64 | 49.4 |  |  |  |  | 
FC(F)(F)c1ccc(N2CCCCC2)c(NC(=S)c2ccncc2)c1 [Compound 2, N-[2-(1-piperidinyl)-5-(trifluoromethyl)phenyl]isonicotinthioamide] |  |  |  |  | Decreases in luciferase activity |  |  |  | 
O=C(NC(=S)Nc1cc(C(F)(F)F)ccc1N1CCCCC1)c1cccnc1 [Compound 3, 1-nicotinoyl-3-[2-(1-piperidinyl)-5-(trifluoromethyl)phenyl]thiourea] | 103.79 | 93.82 | 69.3 | 43.2 |  |  |  |  | 
O=C(NC(=S)Nc1cc(C(F)(F)F)ccc1N1CCCCCC1)c1cccnc1 [Compound 4, N-nicotinoyl-N′[2-(azacycloheptan-1-yl)-5-(trifluoromethyl)phenyl]thiourea] | 93.86 | 89.76 | 65.8 | 44.5 |  |  |  |  | 
O=C(NC(=S)Nc1cc(C(F)(F)F)ccc1N1CCCCCCCC1)c1cccnc1 [Compound 6, N-nicotinoyl-N′-[2-(azacyclononan-1-yl)-5-(trifluoromethyl)phenyl]thiourea] |  |  |  |  | Decreases in luciferase activity | 42.1 ± 1.5 | 80.9 ± 3.2 | cell death was decreased | about 50%
O=C(NC(=S)Nc1cc(C(F)(F)F)ccc1N1CCCCCCC1)c1ccncc1 [Compound 7, N-isonicotinoyl-N′-[2-(azacyclooctan-1-yl)-5-(trifluoromethyl)phenyl]thiourea] | 76.97 | 71.85 | 30.7 | 16.4 |  |  |  |  | 
O=C(NC(=O)c1cccnc1)Nc1cc(C(F)(F)F)ccc1N1CCCCCCC1 [Compound 8, N-nicotinoyl-N′-[2-(azacyclooctan-1-yl)-5-(trifluoro-methyl)phenyl]urea] | 77.35 | 77.81 | 55.7 | 58 |  |  |  |  | 
O=C(NC(=S)Nc1cc(F)ccc1N1CCCCCCC1)c1cccnc1 [Compound 9] | 82.79 | 73.39 | 33.6 | 26 |  |  |  |  | 
Cc1ccc(C(=O)NC(=S)Nc2cc(C(F)(F)F)ccc2N2CCCCCCC2)cn1 [Compound 10, N-(6-methylnicotinoyl)-N′-[2-(azacyclo-octan-1-yl)-5-(trifluoro-methyl)phenyl]thiourea] | 96.19 | 89.38 | 41.2 | 26.9 |  |  |  |  | 
Cc1ccc(C(=O)NC(=S)Nc2cc(C(F)(F)F)ccc2N2CCCCCCC2)cc1 [Compound 11] | 89.95 | 89.20 | 35.8 | 29.8 |  |  |  |  | 
COc1ccc(C(=O)NC(=S)Nc2cc(C(F)(F)F)ccc2N2CCCCCCC2)cc1 [Compound 12, N-(4-methoxybenzoyl)-N′-[2-(azacyclooctan-1-yl)-5-(trifluoromethyl)phenyl]thiourea] | 94.69 | 88.78 | 32.8 | 28.6 |  |  |  |  | 
O=C(NC(=S)Nc1cc(C(F)(F)F)ccc1N1CCCCCCC1)c1ccc(F)cc1 [Compound 13, N-(4-fluorobenzoyl)-N′-[2-(azacyclooctan-1-yl)-5-(trifluoromethyl)phenyl]thiourea] | 101.56 | 104.05 | 34.1 | 28.5 |  |  |  |  | 
O=C(NC(=S)Nc1cc(C(F)(F)F)ccc1N1CCCCCCC1)c1ccccc1 [Compound 14, N-benzoyl-N′-[2-(azacyclooctan-1-yl)-5-(trifluoromethyl)phenyl]thiourea] | 103.81 | 103.76 | 30.3 | 14.8 |  | 71.6 ± 2.2 | 100.0 ± 2.0 | cell death was decreased | 
COc1ccccc1C(=O)NC(=S)Nc1cc(C(F)(F)F)ccc1N1CCCCCCC1 [Compound 15, N-(2-methoxybenzoyl)-N′-[2-(azacyclooctan-1-yl)-5-(trifluoromethyl)phenyl]thiourea] | 107.86 | 107.33 | 45.8 | 37.6 |  |  |  |  | 
O=C(NC(=S)Nc1cc(C(F)(F)F)ccc1F)c1cccnc1 [Compound 16, N-nicotinoyl-N′-[2-fluoro-5-(trifluoro-methyl)phenyl]thiourea] | 85.21 | 79.86 | 58.1 | 48.9 |  |  |  |  | 
O=C(NC(=S)Nc1cc(C(F)(F)F)ccc1N1CCCCCCC1)c1ccoc1 [Compound 17] | 112.89 | 108.81 | 26.1 | 17.6 |  |  |  |  | 
O=C(Nc1cc(C(F)(F)F)ccc1N1CCCCCCCC1)c1ccncc1 [Compound 20, W[2-(azacyclononan-1-yl)-5-(trifluoromethyl)-phenyl]isonicotinamide] | 111.50 | 105.35 | 48.3 | 22.7 |  |  |  |  | 
O=C(NC(=S)Nc1cc(C(F)(F)F)ccc1N1CCCCCCCC1)c1ccccc1 [Compound 24, 1-benzoyl-3-[2-(azacyclononan-1-yl)-5-(trifluoro-methyl)phenyl]thiourea] | 108.20 | 110.15 | 56.4 | 39.4 |  |  |  |  | 

Reference: patent US8765941B2 (Kino Pharma, Inc., priority 2008, dated 2014)
